Measured values: US20060057133A1, “Topical pathogenic-tissue-destroying liquid” (priority 2002, published 2006)

Assays:
diseased tissue = test: topical application of acids, enzymes and the topical liquid to skin, mucous membranes and diseased tissue; settings: for aggressiveness toward the skin and mucous membranes / tissues: topical use while selecting components of the mixture
From the text: The topical liquid or aqueous composition is composed of substances such as nitric acid and enzymes, mucins and ptyalin which are combined to form an aqueous pharmaceutical composition which is applied to the infected tissues and selectively attacks the cells of the diseased tissue or tumour. This composition is applied to the tissues which are to be eliminated, in dabs which are applied using a cotton swab moistened with the topical liquid that destroys the pathogenic tissue. It is applied to the diseased tissue as necessary, until the tissue changes colour and a small clear or pink halo appears round the treated tissue. The site is then washed with clean water. When applied to the mucous membranes, washing after application of the pathogenic-tissue destroying topical liquid is not necessary. […] However, this sometimes depends on the sensitivity of the individual (only individuals who have a tendency to form keloid scars will be left with a slight sign).

[1] = system: herpes simplex virus type 1; settings: 4 mM, cited from earlier work

| Compound | aggressiveness toward the skin and mucous membranes / tissues (diseased tissue) | also measured |
| --- | --- | --- |
| Cl [hydrochloric acid] | too aggressive | – |
| O=[N+]([O-])O [Nitric acid] | least aggressive | – |
| O=S(=O)(O)O [sulphuric, sulphuric acid] | too aggressive | – |
| O=C(O)CC(O)(CC(=O)O)C(=O)O [citric acid] | – | coagulation of the diseased tissue (diseased tissue; topical application): did not succeed in coagulating the diseased tissue |
| O=C(O)C(O)CO (stereo not drawn) [glyceric acid] | – | synthesis of glycoproteins in normal cells ([1]; normal cells): slightly affected; production of the virus inhibited [1]: 99% |
